Experimental data taken from publication PMC3189958, “Salivary PYY: A Putative Bypass to Satiety” (PLoS ONE, 2011).
No end group written: not given here.

What was measured:
[1] = system: C57Bl/6J mice; experiment: Oral spray acute augmentation: food intake after 24 hours fasting; format: in vivo, mouse
Procedure: Figure 6 Oral PYY3-36 augmentation therapy. […] (B) Dose-response effect of PYY3-36 on 2 hr FI vs. control (n = 8 each group). (C) Effect of PYY3-36 oral spray on FI in C57Bl/6J mice measured at 1, 2, 6, 12, 18, and 24 hr post treatment (n = 8/group). (D) Effect of PYY3-36 oral spray on FI in PYY^-/- mice measured at 1, 2, 6, 12, 18, and 24 hr post treatment (n = 8/group). (E) Average 24-hr FI in DIO mice treated with daily PYY3-36 OS (18 mg/100 g). (F) Effect of daily PYY3-36 OS (18 mg/100 g) treatment on BW change in DIO C57Bl/6J mice (n = 9 per each group). (G) Concentration of PYY3-36 in plasma of PYY KO mice 10 min after PYY3-36 (18 mg/100 g BW), or control oral spray vs. PYY3-36 injected i.p. (6 mg/100 g BW) (n = 10 per group).
(§1) One ml total volume sterile vials were obtained from Sephora. Murine PYY3-36 (Bachem) was diluted in sterile H2O. All 8–10 weeks old mice were individually housed. Mice were conditioned to the oral spray with vehicle after 24 hours fast on three separate occasions. Groups were randomized by FI and BW. […] The applied dose was estimated using calculated average volume ([…]) delivered per puff. Food was provided 10 min after the spray was applied and the amount consumed was measured at either 1 hr after the treatment, or at several time points (1, 2, 4, 6, 12, 18, and 24 hours). Taking into account the nocturnal feeding pattern, the experiment was conducted during the night with the first measurement taken at 2000 hrs. Each experiment was done at least 3 times in a crossover manner with 8 mice per group. For the Y2R antagonist study, BIIE0246 compound (Tocris Bioscience, Ellisville, MO) was dissolved in 100% EtOH (0.2 mM) and the stock solution was mixed with PYY3-36 aqueous solution at the 50∶1 molar ratio (BIIE0246/PYY3-36) with the final concentration of 2% EtOH in the mixture. Prior to this experiment, mice were conditioned to 2% EtOH spray on three separate occasions. Wherever practical, the behavioral experiments were conducted in a blind fashion with the personnel uninformed about the treatment regimen.

[2] = biological target: T1, Y2 receptor (Mus musculus, UniProt P97295); experiment: Y2R antagonist study: oral spray of BIIE0246/PYY3-36 mixture, 2 hr FI after 24 hr fast; format: in vivo
T1 construct: from tissue; host or cells: live mice; oral mucosa / tongue epithelium
T1 sequence (P97295 1-381): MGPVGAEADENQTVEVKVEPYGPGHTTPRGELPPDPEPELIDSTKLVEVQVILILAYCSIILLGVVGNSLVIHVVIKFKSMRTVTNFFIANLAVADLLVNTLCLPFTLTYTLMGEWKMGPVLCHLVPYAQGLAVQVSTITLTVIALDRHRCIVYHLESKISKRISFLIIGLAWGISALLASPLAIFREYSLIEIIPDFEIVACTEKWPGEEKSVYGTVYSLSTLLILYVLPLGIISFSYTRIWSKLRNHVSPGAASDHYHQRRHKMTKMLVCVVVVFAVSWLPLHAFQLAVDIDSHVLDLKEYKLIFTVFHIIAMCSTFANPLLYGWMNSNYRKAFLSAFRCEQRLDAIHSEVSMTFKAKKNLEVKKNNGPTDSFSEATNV
Procedure: Direct proof of PYY3-36/Y2R interaction was obtained by utilizing a selective Y2 receptor antagonist BIIE0246 [26]. The antagonist and PYY3-36 agonist (12 mg/100 g BW) were mixed at the 50∶1 molar ratio, respectively, and the mixture was used to treat fasted mice as described above (Fig. 6H).
as §1, with “Prior to this experiment, mice were conditioned to 2% EtOH spray on three separate occasions. Wherever practical, the behavioral experiments were conducted in a blind fashion with the personnel uninformed about the treatment regimen.” left out

[3] = system: PYY KO mice; experiment: Oral spray satiation study, FI over 24 hours after single treatment, PYY KO mice; format: in vivo, mouse; settings: n = 8/group
Procedure: To investigate the duration of action of orally applied PYY3-36 we conducted standard satiation studies in C57Bl/6J as well as in PYY KO mice measuring FI over 24 hours after single treatment.
as §1, with “Wherever practical, the behavioral experiments were conducted in a blind fashion with the personnel uninformed about the treatment regimen.” left out

[4] = system: DIO C57Bl/6J mice; experiment: Repeated once-a-day oral spray in DIO mice fed high fat diet ad libitum (FI and BW); format: in vivo, mouse; settings: daily oral spray 18 mg/100 g, n = 9 per group
Procedure: Figure 6 Oral PYY3-36 augmentation therapy. […] Experiments for each peptide were conducted separately and the results were integrated in one graph as fractions of average amount of FI consumed by the control group. […] (B) Dose-response effect of PYY3-36 on 2 hr FI vs. control (n = 8 each group). (C) Effect of PYY3-36 oral spray on FI in C57Bl/6J mice measured at 1, 2, 6, 12, 18, and 24 hr post treatment (n = 8/group). (D) Effect of PYY3-36 oral spray on FI in PYY^-/- mice measured at 1, 2, 6, 12, 18, and 24 hr post treatment (n = 8/group). (E) Average 24-hr FI in DIO mice treated with daily PYY3-36 OS (18 mg/100 g). (F) Effect of daily PYY3-36 OS (18 mg/100 g) treatment on BW change in DIO C57Bl/6J mice (n = 9 per each group). (G) Concentration of PYY3-36 in plasma of PYY KO mice 10 min after PYY3-36 (18 mg/100 g BW), or control oral spray vs. PYY3-36 injected i.p. (6 mg/100 g BW) (n = 10 per group). (H) Effect of Y2R specific antagonist BIIE0246 on anorexigenic action of PYY3-36 (n = 8 per each group) measured as 2 hr FI after 24 hr fast.*P<0.05, **P<0.01.
Because of the sustained 24-hr effect, we tested whether repeated once-a-day treatment would also affect the FI and BW accumulation over extended period of time when animals were fed high fat (HF) diet ad libitum.

[5] = Concentration of PYY3-36 in plasma after oral spray or i.p. injection (RIA); format: in vivo, mouse; settings: PYY KO mice, n = 10 per group
Procedure: To exclude potential interference with circulating background PYY in the plasma, we used PYY KO mice.
Blood was collected from facial vein puncture into EDTA-coated tubes (Capiject) containing protease inhibitors as described for saliva collection. Plasma samples were frozen at −80°C until analyzed.
(§2) PYY3-36 from saliva and plasma was measured by PYY3-36 RIA kit (Phoenix Pharmaceuticals). The identification of PYY3-36 from human saliva was performed by reverse-phase high performance liquid chromatography (RP-HPLC) followed by Matrix-Assisted Laser Desorption Ionization – Time of Flight (MALDI-TOF) mass spectrometry (MS). PYY3-36 synthetic peptide (Bachem) was used for calibration of all purification steps. Briefly, saliva was pre-purified using a Sep-Pak C18 cartridge (Waters) followed by purification on RP-HPLC uBondapak C18 column (Waters) as described. The PYY3-36-containing fraction was collected, air dried and reconstituted in 0.1% formic acid in 50% acetonitrile/water prior to analysis with MALDI-TOF as described, [40].

[6] = PYY3-36 in saliva after i.p. injection (RIA); format: in vivo, mouse; settings: male C57Bl/6J mice, 10 min post injection, n = 10 per group
Procedure: Some proteins enter saliva from salivary glands where they are expressed and secreted in an exocrine fashion via zymogen granules. Other peptides can enter saliva as a transudate from serum. To establish the source of salivary PYY3-36 we asked whether peptide circulating in a bloodstream can be transported into saliva. To this end, mice were injected intraperitoneally (i.p.) with increasing doses of murine synthetic PYY3-36 (Fig. 1F).
Salivation was stimulated as described earlier. Whole saliva was collected for 5 min from the oral cavity into Eppendorf tubes containing 5000 U Kallikrein inhibitor (Biomedicals) and 50 mM DPP-IV inhibitor (Linco Research). Saliva samples were frozen at −80°C until analyzed.
as §2, with “The PYY3-36-containing fraction was collected, air dried and reconstituted in 0.1% formic acid in 50% acetonitrile/water prior to analysis with MALDI-TOF as described, [40].” left out

[7] = system: rodents; settings: i.p., ref [16]; cited from earlier work

Question: Which “effect of oral spray application on FI” value ([1]; oral spray, similar approach, data not shown) does the source give for “amylin (KCNTATCATQRLANFLVRSSNNLGPVLPPTNVGSNTY; ends and bridges not checked; cysteine pairing not given here; UniProt P12968 38-74, looked up) [endocrine peptide tested by oral spray application]” here?
Answer: no change of FI

Question: With N=C(N)NCCC[C@H](NC(=O)CC1(CC(=O)N2CCN(C3c4ccccc4NC(=O)c4ccccc43)CC2)CCCC1)C(=O)NCCn1c(=O)n(-c2ccccc2)n(-c2ccccc2)c1=O (stereo partly shown) [BIIE0246] as the molecule, how does the “effect of antagonist alone on 2 hr FI” value ([2]; BIIE0246 alone, data not shown) read?
Answer: no effect on 2 hr FI

Question: And the “effect of antagonist on the anorexigenic action of PYY3-36, 2 hr FI” value ([2]; BIIE0246 mixed with PYY3-36 (12 mg/100 g BW) at 50:1 molar ratio, 2% EtOH, after 24 hr fast, n = 8 per group)?
Answer: completely ablated the anorexigenic effect of PYY3-36

Question: For “glucagon-like peptide-1 (HAEGTFTSDVSSYLEGQAAKEFIAWLVKGR; ends and bridges not checked; UniProt P55095 98-127, looked up) [GLP-1]”, which “effect of oral spray on 1 hour FI (satiation) vs control oral spray” value ([1]; oral spray after 24 hours fasting, GLP-1 3 mg/100 g BW, Exendin-4 10 mg/100 g BW, n = 10 each group) is on record?
Answer: induced stronger satiation

Question: With Peptide YY3-36 [PYY3-36] as the molecule, how does the “duration of anorexigenic response, FI over 24 hours after single treatment” value ([1]; C57Bl/6J mice, oral spray, high dose 12 mg/100 g BW, n = 8/group) read?
Answer: significant until the next treatment 24 hrs later

Question: What about the “response of FI over 24 hours to the low dose” value ([1]; C57Bl/6J mice, oral spray, low dose 3 mg/100 g BW, n = 8/group) of the same molecule?
Answer: only PYY KO mice responded

Question: What about the “one hour FI as % of control values at the maximum applied dose” value ([1]; oral spray, dose-response, 12 mg/100 g, after 24 hr fast, n = 8 each group (legend Fig. 6B says 2 hr FI)) of the same molecule?
Answer: 81%

Question: What about the “food consumed less than the control group, 1 hour FI” value ([1]; oral spray, single puff, 3 mg/100 g BW, after 24 hours of fasting, food given 10 min after spray, average, n = 10 per group, C57Bl/6J mice) of the same molecule?
Answer: 12.3%

Question: And the “response of FI over 24 hours to the low dose” value ([3]; PYY KO mice, low dose 3 mg/100 g BW)?
Answer: responded to the treatment in significant manner observed after 18 and 24 hrs post experiment

Question: And the “duration of anorexigenic response, FI over 24 hours after single treatment” value ([3]; PYY-/- mice, high dose 12 mg/100 g BW)?
Answer: significant until the next treatment 24 hrs later

Question: And the BW accumulation ([4]; DIO C57Bl/6J mice, HF diet ad libitum)?
Answer: retarded BW accumulation which became significantly on day 17th

Question: And the “average 24-hr FI of HF food” value ([4]; DIO mice)?
Answer: significantly less HF food

Question: And the “PYY3-36 in plasma 10 min after i.p. injection” value ([5]; i.p. 6 mg/100g BW)?
Answer: significant increase in PYY3-36 found in plasma

Question: What about the “PYY3-36 in plasma 10 min after oral spray” value ([5]; oral spray 18 mg/100 g BW) of the same molecule?
Answer: no detectable PYY3-36 in the plasma

Question: What about the “PYY3-36 in saliva after i.p. injection of increasing doses” value [6] of the same molecule?
Answer: significant relationship between the injected dose and the concentration of the peptide detected in saliva

Question: What about the “FI after intraperitoneal injection” value [7] of the same molecule?
Answer: dose-dependent reduction in FI
